Values of other authors in patent US11318156B2, “Solid injectable veterinary implants comprising monocyclic lactone” (CEVA SANTE ANIMALE, priority 2017, dated 2022).
Like-named read-outs stand apart in the source and are kept apart here.

How the values were obtained:
[1] = 14-week oral study
[2] = not given; remark: listed apart in the source

Substance: ivermectin
- share of collie dogs highly sensitive to ivermectin: approximately 30%
- No Observable Effect Level (NOEL) ([1]; beagle dogs): 0.5 mg/kg bw
- observed effects ([1]; beagle dogs, 1.0 and 2.0 mg/kg bw): mydriasis and slight weight loss
- observed effects ([1]; four dogs in the 2.0 mg/kg bw group, killed prior to end of study): tremors, ataxia, anorexia and dehydration
- average increase in plasma levels ([2]; four-fold increase in the dose (0.5 to 2.0 mg/kg bw oral)): eight-fold
- time to steady-state of ivermectin (B1a) in plasma ([2]; oral 0.5 and 2.0 mg/kg bw, 36-day study): about three weeks
